Test results reported in the NIST ThermoML archive (doi:10.1016/j.fluid.2007.10.013).

Experiment: xn = mol fraction of the nth substance listed
Settings: 101 kPa, Liquid, Taylor dispersion method, x1 = 0

| binary diffusion coefficient (293.2 K) | binary diffusion coefficient (298.2 K) | binary diffusion coefficient (303.2 K) | binary diffusion coefficient (313.2 K) | binary diffusion coefficient (323.2 K) | binary diffusion coefficient (333.2 K) | SMILES |
| --- | --- | --- | --- | --- | --- | --- |
| 7.26e-10 m2/s | 8.39e-10 m2/s | 9.39e-10 m2/s | 1.19e-09 m2/s | 1.47e-09 m2/s | 1.78e-09 m2/s | NC(CCO)C(=O)O (stereo not drawn) [DL-2-amino-4-hydroxybutanoic acid] + O |
| 6.91e-09 m2/s | 7.99e-09 m2/s | 9.04e-09 m2/s | 1.14e-08 m2/s | 1.43e-08 m2/s | 1.72e-08 m2/s | C[C@@H](O)[C@H](N)C(=O)O [DL-threonine] + O |
| 7.72e-10 m2/s | 8.8e-10 m2/s | 9.91e-10 m2/s | 1.26e-09 m2/s | 1.55e-09 m2/s | 1.88e-09 m2/s | NC(CO)C(=O)O (centres undefined) [(.+-.)-serine] + O |
| 6.97e-10 m2/s | 7.96e-10 m2/s | 9.06e-10 m2/s | 1.14e-09 m2/s | 1.42e-09 m2/s | 1.72e-09 m2/s | C[C@H](O)[C@H](N)C(=O)O [DL-allothreonine] + O |
